Experimental data as given in patent US12702654B2, “Compositions and methods for treating homocystinuria and other conditions using polyamines” (THE REGENTS OF THE UNIVERSITY OF COLORADO, priority 2020, dated 2026).

Legend:
DHFR = assay: Western blotting of hepatic DHFR protein levels; type: in vivo, mouse; details: HO mice, betaine treated; not restored to control levels
Procedure: In other exemplary experiments, levels of DHFR were assessed using the HO mouse model in untreated and betaine treated mice. […] In addition, level of intensity of DHFR for wild type (WT), treated (HO+betaine) and untreated mice (HO) using the HCU mouse model was examined (FIG. 4B). It was noted that the level of DHFR in betaine treated mice was not restored to control levels and only about a 5-10% improvement was observed (FIG. 4B). (See FIGS. 4A-4B). As noted herein, Western blotting analysis of hepatic DHFR protein levels in WT and HO HCU mice. N=9 per group.

BHMT = assay: Hepatic BHMT protein during long-term betaine treatment; type: in vivo, mouse
HO HCU mice = details: earlier study, cited from earlier work
SHMT2 = assay: Western blotting of hepatic SHMT2 expression; type: in vivo, mouse; details: HO mice, 30 g/l in drinking water ad libitum, one week
Procedure: To investigate the effects of these treatments upon the hepatic regulatory changes in enzyme expression induced by HCU, the human transgenic HO mouse model of HCU was used. In brief, experimental groups consisting of 8 HO mice on a C57BL/6J background and 8 C57BL/6J WT littermate control mice bred in house were used. Mice in both groups were male and aged between 3 and 4 months. Except where otherwise stated, all mice were maintained on standard chow. All diets were administered using a paired-feeding design to ensure isocaloric intake between all experimental groups and body weights were measured once per week. There was no significant difference in body weight between mice in any of the experimental groups. Betaine and taurine were in this example, both administered by dissolving these compounds in drinking water at 30 g/l ([…] 3% w/v) and were supplied ad libitum for one week. Treatment water was replenished twice per week.
Western blotting analysis of SAHH, MTHFR and SHMT2 expression was performed in liver samples from HO mice in the presence and absence of betaine or taurine treatment.

[1] = test system: mouse model of MTR deficient homocystinuria; assay: tHcy in mouse model of MTR deficient homocystinuria; type: in vivo; details: betaine supplementation
From the text: In the following exemplary experiments, it was observed that betaine supplementation was limited as observed in a mouse model of MTR deficient homocystinuria. As noted in FIG. 1, homocystinuria can occur due to defects in the Hcy remethylation enzymes MTR or MTHFR. It was observed that supplementation of betaine in certain experiments with a mouse model of MTR deficient homocystinuria lead to reduction of tHcy of approximately 25% having little effect on the condition. This modest decrease in betaine mediated treatment of MTR deficient homocystinuria has also been observed in human patients with this form of homocystinuria.

Cbs null mouse = details: betaine treatment; cited from earlier work

C[N+](C)(C)CC(=O)O [betaine, N,N,N-trimethylglycine]
improvement of hepatic DHFR level (DHFR): 5-10%
BHMT protein levels (BHMT): significantly higher levels of BHMT protein
BHMT as share of total hepatic protein (BHMT; approximately 2% without): 8-10%
total homocysteine levels after a longer period of treatment (HO HCU mice; HCU mice, longer period of betaine treatment): greater than 100 μM
plasma homocysteine (HO HCU mice; mouse model of HCU, betaine treatment): below 100 μM
HCU-induced repression of hepatic SHMT2 (SHMT2): completely reversed
reduction of tHcy [1]: approximately 25%
Hcy in Cbs (−/−) mice (Cbs null mouse): without significantly lowering Hcy
fertility of female Cbs (−/−) mice (Cbs null mouse): restored fertility
severe liver injury, steatosis, and fibrosis in Cbs (−/−) mice (Cbs null mouse): not significantly improved
survival of Cbs (−/−) mice (Cbs null mouse): improved survival
